Measurements from PubChem BioAssay (NCI).
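Cells were grown in 96-well plates and exposed to each compound for 48 hours at five concentrations; endpoints were interpolated linearly between bracketing concentrations, or set to the highest concentration if not reached. The concentration for 50% growth inhibition is given as GI50. At the TGI there is no net growth.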

Columns and labels:
Experiment in all cases: NCI tumour cell line growth inhibition, 48 h
[1] = tested on: SN12C renal
[2] = tested on: NCI-H522 lung
[3] = tested on: PC-3 prostate
[4] = tested on: SK-MEL-2 melanoma
[5] = tested on: SK-MEL-5 melanoma
[6] = tested on: MALME-3M melanoma
[7] = tested on: KM12 colon
[8] = tested on: NCI-H23 lung
[9] = tested on: M14 melanoma
[10] = tested on: SNB-19 CNS
[11] = tested on: SK-OV-3 ovarian
[12] = tested on: SF-295 CNS
[13] = tested on: NCI/ADR-RES ovarian
[14] = tested on: MOLT-4 leukemia
[15] = tested on: A549 NSCLC
[16] = tested on: HCC-2998 colon
[17] = tested on: ACHN renal
[18] = tested on: OVCAR-8 ovarian
[19] = tested on: HS 578T breast
[20] = tested on: HCT-116 colon
[21] = tested on: MCF7 breast
[22] = tested on: HT29 colon
[23] = tested on: HCT-15 colon
[24] = tested on: BT-549 breast
[25] = tested on: TK-10 renal
[26] = tested on: NCI-H460 lung
[27] = tested on: K-562 leukemia
[28] = tested on: MDA-N
[29] = tested on: SK-MEL-28 melanoma
[30] = tested on: UACC-62 melanoma
[31] = tested on: T-47D breast
[32] = tested on: U251 CNS
[33] = tested on: IGROV1 ovarian
[34] = tested on: UACC-257 melanoma
[35] = tested on: UO-31 renal
[36] = tested on: COLO 205 colon
[37] = tested on: NCI-H226 lung
[38] = tested on: SW-620 colon
[39] = tested on: RPMI-8226 leukemia
[40] = tested on: EKVX NSCLC
[41] = tested on: OVCAR-3 ovarian
[42] = tested on: A498 renal
[43] = tested on: MDA-MB-435
[44] = tested on: LOX IMVI melanoma
[45] = tested on: SF-539 CNS
[46] = tested on: 786-0 renal
[47] = tested on: HL-60(TB) leukemia
[48] = tested on: DU-145 prostate
[49] = tested on: SNB-75 CNS
[50] = tested on: HOP-92 NSCLC
[51] = tested on: OVCAR-4 ovarian
[52] = tested on: OVCAR-5 ovarian
[53] = tested on: CCRF-CEM leukemia
[54] = tested on: CAKI-1 renal
[55] = tested on: MDA-MB-231 breast
[56] = tested on: SF-268 CNS
[57] = tested on: HOP-62 NSCLC

## C=C1CC(C)(COc2ccc3c(C)c(C)c(=O)oc3c2C)OC1=O (stereo not given)
[1]
  TGI: 4.28 µM
[2]
  TGI: 4.28 µM
[3]
  TGI: 7.08 µM
[4]
  TGI: 5.58 µM
[5]
  TGI: 3.73 µM
[6]
  TGI: 5.53 µM
[7]
  TGI: 19.6 µM
[8]
  TGI: 5.25 µM
[9]
  TGI: 10.7 µM
[10]
  TGI: 30.4 µM
[11]
  TGI: 12.2 µM
[12]
  TGI: 16.1 µM
[13]
  TGI: 13.8 µM
[14]
  TGI: 4.13 µM
[15]
  TGI: 21 µM
[16]
  TGI: 4.49 µM
[17]
  TGI: 7.45 µM
[18]
  TGI: 7.69 µM
[19]
  TGI: 15.1 µM
[20]
  TGI: 2.41 µM
[21]
  TGI: 2.84 µM
[22]
  TGI: 5.39 µM
[23]
  TGI: 4.54 µM
[24]
  TGI: 3.07 µM
[25]
  TGI: 3.08 µM
[26]
  TGI: 19.6 µM
[27]
  TGI: 4.4 µM
[28]
  TGI: 4.61 µM
[29]
  TGI: 5.08 µM
[30]
  TGI: 2.74 µM
[31]
  TGI: 3.09 µM
[32]
  TGI: 18.9 µM
[33]
  TGI: 3.35 µM
[34]
  TGI: 6.98 µM
[35]
  TGI: 22.2 µM
[36]
  TGI: 2.75 µM
[37]
  TGI: 32.6 µM
[38]
  TGI: 3.92 µM
[39]
  TGI: 2.59 µM
[40]
  TGI: 15.1 µM
[41]
  TGI: 14.2 µM
[42]
  TGI: 4.26 µM
[43]
  TGI: 11.2 µM
[44]
  TGI: 2.91 µM
[45]
  TGI: 7.04 µM
[46]
  TGI: 3.24 µM
[47]
  TGI: 0.954 µM
[48]
  TGI: 7.08 µM
[49]
  TGI: 15.9 µM
[50]
  TGI: 2.76 µM
[51]
  TGI: 19.3 µM
[52]
  TGI: 16.2 µM
[53]
  TGI: 3.2 µM
[54]
  TGI: 6.26 µM
[55]
  TGI: 7.8 µM
[56]
  TGI: 15.7 µM
[57]
  TGI: 28.8 µM

## O=c1cc(-c2ccc3ccccc3c2)[nH]c2ncc(Cl)cc12
[1]
  TGI: > 100 µM
[2]
  TGI: 36.8 µM
[3]
  GI50: 3.1 µM
  TGI: 29.1 µM
[4]
  TGI: 45.1 µM
[5]
  GI50: 2.98 µM
  TGI: > 100 µM
[6]
  TGI: 44.1 µM
[7]
  TGI: > 100 µM
[8]
  TGI: 57 µM
[9]
  TGI: > 100 µM
[10]
  TGI: 51.2 µM
[11]
  TGI: 34.4 µM
[12]
  GI50: 5.44 µM
  TGI: 29 µM
[13]
  TGI: > 100 µM
[14]
  TGI: > 100 µM
[15]
  TGI: > 100 µM
[16]
  TGI: > 100 µM
[17]
  TGI: > 100 µM
[18]
  TGI: 22.9 µM
[19]
  TGI: 70.8 µM
[20]
  GI50: 3.98 µM
  TGI: > 100 µM
[21]
  TGI: > 100 µM
[22]
  TGI: > 100 µM
[23]
  TGI: > 100 µM
[24]
  TGI: > 100 µM
[25]
  TGI: 45.6 µM
[26]
  GI50: 4.12 µM
  TGI: > 100 µM
[27]
  TGI: > 100 µM
[28]
  GI50: 1.55 µM
  TGI: 5.45 µM
[29]
  TGI: > 100 µM
[30]
  TGI: > 100 µM
[31]
  TGI: > 100 µM
[32]
  GI50: 4.74 µM
  TGI: 46.1 µM
[33]
  TGI: > 100 µM
[34]
  TGI: > 100 µM
[35]
  TGI: > 100 µM
[36]
  TGI: 21.8 µM
[37]
  TGI: > 100 µM
[38]
  TGI: > 100 µM
[39]
  TGI: 24.5 µM
[40]
  TGI: > 100 µM
[41]
  GI50: 2.65 µM
  TGI: 7.81 µM
[42]
  TGI: 43.1 µM
[43]
  GI50: 0.846 µM
  TGI: 2.76 µM
[44]
  TGI: > 100 µM
[45]
  TGI: 56.5 µM
[46]
  TGI: 16.8 µM
[47]
  GI50: 1.78 µM
  TGI: 3.96 µM
[48]
  TGI: > 100 µM
[49]
  TGI: 9.96 µM
[50]
  TGI: 38.1 µM
[51]
  TGI: > 100 µM
[52]
  TGI: > 100 µM
[53]
  TGI: 56.8 µM
[54]
  GI50: 7.58 µM
  TGI: > 100 µM
[55]
  TGI: 56.2 µM
[56]
  TGI: 34.4 µM
[57]
  TGI: 29.6 µM
